Experimental data published in article PMC3722118, “Hellebrin and its aglycone form hellebrigenin display similar in vitro growth inhibitory effects in cancer cells and binding profiles to the alpha subunits of the Na^+/K^+-ATPase” (Molecular Cancer, 2013).

Experiments:
human NaK = target: human NaK; parameters: method as in PMID 17706876; conditions: read-out: Ki for inhibition of activity, human NaK; cited from earlier work
T98G glioma cells = assay: MTT colorimetric in vitro growth inhibition assay; assay type: cell-based, human; conditions: Homo sapiens, T98G, 72 h; three days of culture; * three independent experiments, ** one experiment, six replicates; read-out: IC50 (nM) T98G
From the text: (§1) The histological types and origins of the eight human cancer cell lines that were used for the MTT colorimetric assay are detailed in the legend of Table 1. Two mouse cancer cell lines were also used, the CT26.WT colon cancer cell line (ATCC code CRL-2638) and the B16F10 melanoma cell line (ATCC code CRL-6475). Both cell lines were obtained from the American Type Culture Collection (ATCC, Manassas, VA). A control cell line (human NHDF fibroblasts) was obtained from PromoCell (code c-12300; Heidelberg, Germany). The cell lines detailed in Figure 2A are a generous gift from the National Cancer Institute (NCI, Bethesda, USA) to Steven Karlish’s lab.
(§2) The cancer cells were cultured in RPMI (Lonza, Verviers, Belgium) medium supplemented with 10% heat-inactivated fetal calf serum (Lonza). All culture media were supplemented with 4 mM glutamine, 100 μg/mL gentamicin, 200 U/mL penicillin and 200 μg/mL streptomycin (Lonza). The NHDF fibroblasts were cultured in Lonza medium cc3132 KT FGM-2 BulletKit.
(§3) The overall growth level of the human cancer cell lines was determined using a colorimetric MTT (3-(4,5-dimethylthiazol-2yl)-2,5-diphenyltetrazolium bromide, Sigma, Belgium) assay as detailed previously. Briefly, this test measures the number of metabolically active (thus living) cells that are able to transform the yellow MTT into the blue formazan dye via a mitochondrial reduction involving succinate dehydrogenase. The amount of formazan obtained at the end of the experiment (measured by spectrophotometry) is directly proportional to the number of living cells. The determination of the optical density in the control compared to the treated cells therefore enables quantitative measurements of the effects of compounds on the growth of normal as well as cancer cells in vitro.
(§4) Each experimental condition was performed in six replicates.

Hs683 glioma cells = assay: MTT colorimetric in vitro growth inhibition assay; assay type: cell-based, human; conditions: Homo sapiens, Hs 683, 72 h; three days of culture; * three independent experiments, ** one experiment, six replicates; read-out: IC50 (nM) Hs683
From the text: as §1, §2, §3, §4

[1] = test system: PC-3 prostate cancer cells; assay: MTT colorimetric in vitro growth inhibition assay; assay type: cell-based, human; conditions: Homo sapiens, 72 h; three days of culture; * three independent experiments, ** one experiment, six replicates; read-out: IC50 (nM) PC-3
From the text: as §1, §2, §3, §4

SKMEL-28 melanoma cells = assay: MTT colorimetric in vitro growth inhibition assay; assay type: cell-based, human; conditions: Homo sapiens, SK-MEL-28, 72 h; three days of culture; * three independent experiments, ** one experiment, six replicates; read-out: IC50 (nM) SKMEL-28
From the text: as §1, §2, §3, §4

A549 NSCLC cells = assay: MTT colorimetric in vitro growth inhibition assay; assay type: cell-based, human; conditions: Homo sapiens, A549, 72 h; three days of culture; * three independent experiments, ** one experiment, six replicates; read-out: IC50 (nM) A549
From the text: as §1, §2, §3, §4

U373 glioma cells = assay: MTT colorimetric in vitro growth inhibition assay; assay type: cell-based, human; conditions: Homo sapiens, U373 MG, 72 h; three days of culture; * three independent experiments, ** one experiment, six replicates; read-out: IC50 (nM) U373
From the text: as §1, §2, §3, §4

HT-29 colon cancer cells [2] = assay: MTT colorimetric in vitro growth inhibition assay; assay type: cell-based, human; conditions: Homo sapiens, HT-29, 72 h; three days of culture; * three independent experiments, ** one experiment, six replicates; read-out: IC50 (nM) HT-29
From the text: as §1, §2, §3, §4

[3] = test system: MCF-7 breast cancer cells; assay: MTT colorimetric in vitro growth inhibition assay; assay type: cell-based, human; conditions: Homo sapiens, MCF7, 72 h; three days of culture; * three independent experiments, ** one experiment, six replicates; read-out: IC50 (nM) MCF-7
From the text: as §1, §2, §3, §4

HT-29 colon cancer cells [4] = assay: O2 consumption rate (MitoXpress assay); assay type: cell-based, human; conditions: compounds at their IC50 (MTT), 24 h
Protocol: For enzymatic determination of lactate production, confluent tumor cells were incubated with 10 mM glucose for 24 hours. Culture medium was then filtered through centrifugation columns with a 10 KDa cutoff, and L-lactate concentrations were determined on an ISCUSflex analyzer (CMA Microdialysis AB, Solna, Sweden). O2 consumption was determined using the MitoXpress assay according to the manufacturer’s instructions (LuxCell Biosciences, Cork, Ireland). Briefly, after adding the oxygen probe to tumor cells cultured for 24 hours in 96-well microplates with or without the tested compounds, the wells were sealed with mineral oil, and respiration was evaluated using time-resolved fluorescent plate readers. Under these conditions, O2 depletion was translated into an increase in probe phosphorescence signal, and the slope of this signal was used to derive the O2 consumption rate.
Figure 6 Metabolic profiling of human HT29 colon cancer cells treated with cardiotonic steroids. A: Extracellular lactate concentrations and B: O2 consumption rates in HT29 cancer cells treated with the indicated compounds at their IC50in vitro growth inhibitory concentrations (see Table 1). The data (mean ± SEM from triplicates) are expressed in mM lactate accumulated in the extracellular medium after 24 hours and arbitrary units derived from time-resolved fluorescent signal.min^-1.

[5] = test system: human cancer cells (A549, U373, Hs683, T98G, MCF-7, SKMEL-28, PC-3, HT-29); assay: MTT growth inhibition, mean over the eight human cancer cell lines; assay type: cell-based; conditions: 72 h; mean over eight human cancer cell lines, three days of culture; read-out: IC50 (nM) Mean ± SEM
From the text: as §1, §2, §3, §4

Rodent NaK = target: Rodent NaK; parameters: method as in PMID 17706876; conditions: read-out: Ki for inhibition of activity, rodent NaK; cited from earlier work

C[C@@H]1O[C@@H](O[C@H]2C[C@@H](O)[C@]3(CO)[C@H]4[C@H](O)C[C@]5(C)[C@@H](C6=CC(=O)OC6)CC[C@]5(O)[C@@H]4CC[C@]3(O)C2)[C@H](O)[C@H](O)[C@H]1O [Ouabain]
Ki (human NaK): 100 nM
IC50 (T98G glioma cells): 80 ± 3 nM
IC50 (Hs683 glioma cells): 34 ± 3 nM
IC50 [1]: 63 ± 10 nM
IC50 (SKMEL-28 melanoma cells): 83 ± 13 nM
IC50 (A549 NSCLC cells): 37 ± 2 nM
IC50 (U373 glioma cells): 78 ± 1 nM
IC50 (HT-29 colon cancer cells [2]): 84 ± 8 nM
IC50 [3]: 100 ± 17 nM
O2 consumption rate (cell respiration) (HT-29 colon cancer cells [4]): significantly reduced
IC50 [5]: 70 ± 8 nM
Ki (Rodent NaK): 100000 nM
